PubChem BioAssay (NCI)
“And” between values parts separate entries of the source, which are not always exact repeats. Identical values can stand only once.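 Grown in 96-well plates, cells were treated for 48 hours with each compound at five concentrations. Insufficient inhibition: endpoint recorded as highest concentration tested. Here, GI50 denotes the concentration required for 50% inhibition of growth. TGI marks complete inhibition of growth.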

Experiments:
Test in all cases: NCI-60 cell line screen, 48 h
[1] = system: 786-0 renal
[2] = system: A498 renal
[3] = system: A549 NSCLC
[4] = system: ACHN renal
[5] = system: CAKI-1 renal
[6] = system: CCRF-CEM leukemia
[7] = system: DLD-1 colon
[8] = system: EKVX NSCLC
[9] = system: HCC-2998 colon
[10] = system: HCT-116 colon
[11] = system: HCT-15 colon
[12] = system: HL-60(TB) leukemia
[13] = system: HOP-18 NSCLC
[14] = system: HOP-62 NSCLC
[15] = system: HOP-92 NSCLC
[16] = system: HT29 colon
[17] = system: K-562 leukemia
[18] = system: KM12 colon
[19] = system: KM20L2 colon
[20] = system: LOX IMVI melanoma
[21] = system: LXFL 529 NSCLC
[22] = system: M14 melanoma
[23] = system: M19-MEL melanoma
[24] = system: MALME-3M melanoma
[25] = system: MOLT-4 leukemia
[26] = system: NCI-H226 lung
[27] = system: NCI-H23 lung
[28] = system: NCI-H460 lung
[29] = system: NCI-H522 lung
[30] = system: OVCAR-4 ovarian
[31] = system: OVCAR-8 ovarian
[32] = system: RXF-631 renal
[33] = system: SF-268 CNS
[34] = system: SF-295 CNS
[35] = system: SF-539 CNS
[36] = system: SK-MEL-2 melanoma
[37] = system: SK-MEL-28 melanoma
[38] = system: SK-OV-3 ovarian
[39] = system: SN12C renal
[40] = system: SNB-19 CNS
[41] = system: SNB-75 CNS
[42] = system: SR leukemia
[43] = system: SW-620 colon
[44] = system: TK-10 renal
[45] = system: U251 CNS
[46] = system: UACC-257 melanoma
[47] = system: UACC-62 melanoma
[48] = system: UO-31 renal
[49] = system: BT-549 breast
[50] = system: COLO 205 colon
[51] = system: DMS 114 small cell lung
[52] = system: DMS 273 small cell lung
[53] = system: DU-145 prostate
[54] = system: HS 578T breast
[55] = system: IGROV1 ovarian
[56] = system: MCF7 breast
[57] = system: MDA-MB-231 breast
[58] = system: MDA-MB-435
[59] = system: MDA-N
[60] = system: OVCAR-3 ovarian
[61] = system: OVCAR-5 ovarian
[62] = system: PC-3 prostate
[63] = system: RPMI-8226 leukemia
[64] = system: RXF 393 renal
[65] = system: SK-MEL-5 melanoma
[66] = system: SNB-78 CNS
[67] = system: T-47D breast
[68] = system: XF 498 CNS

For `CN/N=C(\C)c1c(O)cc(C)oc1=O`, the TGI [1] was > 100 µM, the TGI [2] was > 100 µM and the TGI [3] was > 100 µM. For the same molecule, the TGI [4] was > 100 µM, the TGI [5] was > 100 µM and the TGI [6] was > 100 µM. The TGI [7] was > 100 µM, the TGI [8] was > 100 µM and the TGI [9] was > 100 µM. For the same molecule, the TGI [10] was > 100 µM, the TGI [11] was > 100 µM and the TGI [12] was > 100 µM. For the same molecule, the TGI [13] was > 100 µM, the TGI [14] was > 100 µM and the TGI [15] was > 100 µM. The TGI [16] was > 100 µM, the TGI [17] was > 100 µM and the TGI [18] was > 100 µM. For the same molecule, the TGI [19] was > 100 µM, the TGI [20] was > 100 µM and the TGI [21] was > 100 µM. The TGI [22] was > 100000 nM, the TGI [23] was > 100 µM and the TGI [24] was > 100 µM. For the same molecule, the TGI [25] was > 100 µM, the TGI [26] was > 100 µM and the TGI [27] was > 100 µM. For the same molecule, the TGI [28] was > 100 µM, the TGI [29] was > 100 µM and the TGI [30] was > 100 µM. For the same molecule, the TGI [31] was > 100 µM, the TGI [32] was > 100 µM and the TGI [33] was > 100 µM. The TGI [34] was > 100 µM, the TGI [35] was > 100 µM and the TGI [36] was > 100000 nM. The TGI [37] was > 100 µM, the TGI [38] was > 100 µM and the TGI [39] was > 100 µM. The TGI [40] was > 100 µM, the TGI [41] was > 100 µM and the TGI [42] was > 100 µM. The TGI [43] was > 100 µM, the TGI [44] was > 100 µM and the TGI [45] was > 100 µM. For the same molecule, the TGI [46] was > 100 µM, the TGI [47] was > 100 µM and the TGI [48] was > 100 µM.
For `Cc1nc2c(o1)C(=O)c1ccccc1C2=Nc1ccccc1`, the TGI [1] was > 55.8 µM, the GI50 [3] was 13.2 µM and the TGI [3] was 32.3 µM. The GI50 [4] was 4.72 µM, the TGI [4] was > 37.7 µM and the TGI [49] was 3.13 µM. For the same molecule, the TGI [5] was 32 µM, the GI50 [6] was 4.61 µM and the TGI [6] was > 65.8 µM. For the same molecule, the TGI [50] was 27.1 µM, the TGI [7] was 29.2 µM and the GI50 [51] was 1780 nM. The TGI [51] was 2.89 µM and 3.69 µM, the TGI [52] was 6.1 µM and the TGI [53] was 3.33 µM. The GI50 [8] was 7.57 µM, the TGI [8] was > 31.6 µM and the TGI [9] was 28.5 µM. For the same molecule, the GI50 [10] was 3.35 µM, the TGI [10] was 5.77 µM and the GI50 [11] was 3.17 µM. It also gave a TGI [11] of 7.63 µM, a GI50 [12] of 3.04 µM and a TGI [12] of 11.6 µM. For the same molecule, the GI50 [13] was 4.27 µM, the TGI [13] was 3.39 µM and 10.1 µM and the TGI [14] was 6.05 µM. The TGI [15] was 6.07 µM, the TGI [54] was 5.38 µM and the TGI [16] was 33.3 µM. The TGI [55] was 20.6 µM, the GI50 [17] was 4.28 µM and the TGI [17] was > 37.4 µM. The TGI [18] was 14.4 µM, the TGI [19] was 42 µM and the TGI [20] was 5.2 µM. The TGI [21] was 12.3 µM, the GI50 [22] was 1640 nM and the TGI [22] was 3000 nM and 2110 nM. For the same molecule, the GI50 [23] was 1550 nM, the TGI [23] was 3.24 µM and 2.97 µM and the GI50 [24] was 1690 nM. For the same molecule, the TGI [24] was 3.06 µM and 2.66 µM, the TGI [56] was 5.47 µM and the TGI [57] was 18.5 µM. The TGI [58] was 1090 nM, the TGI [59] was 959 nM and the GI50 [25] was 4.55 µM and 4.44 µM. It also gave a TGI [25] of 34.5 µM, a TGI [26] of 31.9 µM and a GI50 [27] of 2310 nM. For the same molecule, the TGI [27] was 6.17 µM and 6.48 µM, the TGI [28] was 12.3 µM and the GI50 [29] was 3.21 µM. The TGI [29] was 7.81 µM and 4.27 µM, the GI50 [60] was 2500 nM and the TGI [60] was 4.52 µM and 8.04 µM. The GI50 [30] was 2150 nM, the TGI [30] was 6.5 µM and 5.86 µM and the TGI [61] was 11.8 µM. For the same molecule, the GI50 [31] was 4.16 µM, the TGI [31] was 9.66 µM and the TGI [62] was 6.51 µM. The GI50 [63] was 4.43 µM, the TGI [63] was 11.1 µM and the TGI [64] was 3.3 µM. The GI50 [33] was 3.11 µM, the TGI [33] was > 31.6 µM and the GI50 [34] was 1950 nM. The TGI [34] was 3.88 µM, the GI50 [35] was 1960 nM and the TGI [35] was 3.66 µM and 5.95 µM. For the same molecule, the GI50 [36] was 3.62 µM, the TGI [36] was 2950 nM and the TGI [37] was 3.91 µM. For the same molecule, the GI50 [65] was 1730 nM, the TGI [65] was 3100 nM and 2720 nM and the TGI [38] was 31.2 µM. For the same molecule, the GI50 [39] was 2990 nM, the TGI [39] was 7.38 µM and 6.18 µM and the GI50 [40] was 11 µM. The TGI [40] was 23 µM, the TGI [41] was 3.94 µM and 3.81 µM and the TGI [66] was 9.13 µM. For the same molecule, the TGI [42] was > 93.5 µM, the GI50 [43] was 3.6 µM and the TGI [43] was 7.86 µM. The TGI [67] was 7.65 µM, the TGI [44] was 41.9 µM and the TGI [45] was 3.12 µM and 3.7 µM. The TGI [46] was 5.46 µM and 4.39 µM, the GI50 [47] was 2070 nM and the TGI [47] was 3.84 µM and 6.7 µM. For the same molecule, the GI50 [48] was 3.66 µM, the TGI [48] was 7.62 µM and the TGI [68] was 7.69 µM and 6.99 µM.
